Measured values: paper PMC11013284, “Chemoselective Synthesis and Anti-Kinetoplastidal Properties of 2,6-Diaryl-4H-tetrahydro-thiopyran-4-one S-Oxides: Their Interplay in a Cascade of Redox Reactions from Diarylideneacetones” (Molecules, 2024)
Like-named read-outs stand apart in the source and are kept apart here.

Experiments:
[1] = system: Trypanosoma brucei brucei trypomastigotes, suramin-sensitive strain (Squib 427); assay: T. b. brucei growth/viability assay (resazurin); type: cell-based; conditions: for IC50: 3 days; for anti-trypanosomal activity (IC50): Trypanosoma (T. cruzi and T. b. brucei)
Experimental: After 3 days, parasite growth was assessed fluorimetrically following the addition of resazurin. After 24 h at 37 °C, fluorescence was measured (λex = 550 nm, λem = 590 nm). The results were expressed as a percentage reduction in parasite growth/viability compared to control wells, and a 50% inhibitory concentration (IC50) was calculated.

[2] = system: Trypanosoma cruzi (Tulahuen CL2 β-galactosidase) amastigotes in hMRC-5SV2 cells; assay: T. cruzi intracellular amastigote assay (β-galactosidase/CPRG); type: cell-based; conditions: intracellular amastigotes, 7 days; for IC50: read-out: IC50 T. cruzi intramacrophage amastigotes (converted)
Experimental: A nifurtimox-sensitive strain (Tulahuen CL2 β-galactosidase) in human lung fibroblast hMRC-5SV2 cells was incubated for 7 days in 96-well plates with five concentrations of compound (64, 16, 4, 1, and 0.25 μM). The parasitic burden was evaluated through the activity of the enzyme β-galactosidase on a specific chlorophenol red ß-D-galactopyranoside (CPRG) substrate. Live parasites converted the yellow-orange CPRG substrate into the red chromophore chlorophenol red, yielding a dark-red solution, which could be quantitatively measured at 540 nm after 4 h of incubation at 37 °C. The results were expressed as a percentage reduction in parasite growth/viability compared to control wells, and an IC50 was calculated.

[3] = system: L. infantum (MHOM/MA(BE)/67) amastigotes in primary peritoneal mouse macrophages; assay: L. infantum intramacrophage amastigote assay (microscopic burden); type: cell-based, Leishmania infantum; conditions: 5 days, mouse macrophages as host
Experimental: L. infantum (MHOM/MA(BE)/67 strain) amastigote were incubated for 5 days in 96-well plates with five concentrations of compound (64, 16, 4, 1, and 0.25 μM). Primary peritoneal mouse macrophages were used as host cells. Parasite burdens (i.e., the number of amastigotes per macrophage) were microscopically assessed. The results were expressed as a percentage reduction in parasite burden compared to untreated control wells, and an IC50 was calculated.

in vitro = conditions: human, CC50 hMRC-5 (cytotoxicity)
Experimental: (§1) The cytotoxicity of compounds was evaluated toward human diploid embryonic lung fibroblast hMRC-5SV2 cells, derived from fetal lung tissue and first described in 1970. hMRC-5SV2 cells were cultured in 96-well plates with five concentrations of the compound (64, 16, 4, 1, and 0.25 μM). After 3 days of incubation, the cell viability was assessed fluorimetrically after the addition of resazurin, and fluorescence was measured (λex = 550 nm, λem = 590 nm). The results were expressed as a percentage reduction in cell growth/viability compared to control wells, and a 50% cytotoxic concentration (CC50) was calculated. The reference cytotoxic drugs were tamoxifen or ivermectin. Additionally, toxicity toward mouse macrophages was qualitatively observed. Three concentrations were included (64, 16, and 4 µM), and the range of toxicity was ranked from the least toxic to the most toxic compound.

murine macrophages = assay: Qualitative toxicity toward mouse macrophages; conditions: concentration at which toxicity was observed; 64, 16 and 4 µM tested
Experimental: as §1

[4] = system: WT LV9 L. donovani intramacrophage amastigotes; assay: L. donovani intramacrophage amastigote assay; type: cell-based, Leishmania donovani; conditions: WT LV9, ± SD in Tables S5/S6, read-out: IC50 L. donovani intramacrophage amastigotes
[5] = system: human diploid embryonic lung fibroblast hMRC-5SV2 cells; assay: in vitro
Experimental: as §1

[6] = Solubility observations (crystals in assay, insolubility in solvents); type: physicochemical; conditions: noted in L. donovani assay, Table S5
[7] = Trypanosoma cruzi, TULAHUEN, 168 h
[8] = Leishmania infantum, Macrophage, 120 h
[9] = bracketed value after the intramacrophage IC50 (Table S5), Table S6

Structure (SMILES)	IC50 ([1]; Trypanosoma brucei, 72 h) [µM]	IC50 [2, 7] [µM]	IC50 [3, 8] [µM]	CC50 at 3 days (in vitro) [µM]	Toxicity (T) observed toward murine macrophages (murine macrophages)	IC50 [1] [µM]	IC50 [2] [µM]	IC50 [3] [µM]	CC50 [5] [µM]	IC50 [4] [µM]	observed macrophage death / lysis observed at (macrophages; [9]) [µM]	other results
O=C1CC(c2ccccn2)[S+]([O-])C(c2ccccn2)C1 (mixture of isomers) [3′w, (syn/anti)-cis-2,6-Di-(pyridin-2-yl)-4H-tetra-hydrothiopyran-4-one 1-oxide, as diastereoisomeric mixture]	0.1	0.5	2	8.1	T3 (T3 = 4)							IC50 ([4]; Leishmania donovani): 2.5 µM
O=C1CC(c2c(Cl)cccc2Cl)SC(c2c(Cl)cccc2Cl)C1 (racemic) [2h]						> 64	> 64	2	> 64			presence of crystals, concentration range [6]: 12.5 to 200 µM
COc1ccc(C2CC(=O)CC(c3ccc(OC)c(OC)c3)S2)cc1OC (racemic) [2j]						8.1	7.3	32.5	9.3	19.3 ± 7.1	> 150	
O=C1CC(c2ccc(C(F)(F)F)cc2)SC(c2ccc(C(F)(F)F)cc2)C1 (racemic) [2r]						0.5	2.5	32.5	10.2	68.6 ± 41.2	200	
N#Cc1ccc(C2CC(=O)CC(c3ccc(C#N)cc3)S2)cc1 (racemic) [2t]						1.2	42.5	> 64	> 64	> 50	> 100	
CC(=O)Nc1ccc(C2CC(=O)CC(c3ccc(NC(C)=O)cc3)S2)cc1 (racemic) [2v]						> 64	> 64	> 64	> 64	> 50	> 100	
O=C1CC(c2ccco2)SC(c2ccco2)C1 (racemic) [2z]						> 64	> 64	> 64	> 64	3.2 ± 0.8	> 150	
O=C1CC(c2ccccn2)S(=O)(=O)C(c2ccccn2)C1 (racemic) [4w, (±)-trans-2,6-Di-(pyridin-2-yl)-4H-tetrahydrothiopyran-4-one 1,1-dioxide]		0.4	2	7.9	T3 (T3 = 4)	0.5				5		anti-trypanosomal activity (IC50) [1]: high nanomolar range; IC50 L. infantum intramacrophage amastigotes [3]: excellent potency
Cc1ccccc1/C=C/C(=O)/C=C/c1ccccc1C [1b]						> 64	51.7	8.1	> 64	11.9 ± 1.1	> 37.5	
COc1ccc(/C=C/C(=O)/C=C/c2ccc(OC)c(OC)c2)cc1OC [1j]	2.1	2.1	30	6.9	T1 (T1 = 64)							
COc1ccc(OC)c(/C=C/C(=O)/C=C/c2cc(OC)ccc2OC)c1 [1m]	0.8	1.1	10.4	1	T1 (T1 = 64)							
COc1cc(Br)c(OC)c(/C=C/C(=O)/C=C/c2cc(OC)cc(Br)c2OC)c1 [1q]	0.9	0.9	10.4	0.8	T1 (T1 = 64)							
CC(=O)Nc1ccc(/C=C/C(=O)/C=C/c2ccc(NC(C)=O)cc2)cc1 [1v]						0.5	10.2	8.1	34	> 50	100	
O=C(/C=C/c1ccccn1)/C=C/c1ccccn1 [1w]	0.03	0.3	0.4	1.9	T3 (T3 = 4)							
O=C(/C=C/c1ccco1)/C=C/c1ccco1 [1z]	7.6	39.9	32.5	> 64	T1 (T1 = 64)							IC50 ([4]; Leishmania donovani): 14 ± 2.6 µM; observed macrophage death / lysis observed at (macrophages): > 50 µM
Cc1ccc(/C=C/C(=O)/C=C/c2ccc(C)o2)o1 [1za]	8.2	2.2	8.1	5.4	T2 (T2 = 16)							
Cc1ccc(/C=C/C(=O)/C=C/c2ccccc2)cc1 [1’a]						0.5	2.6	32.5	47			presence of crystals, concentration range [6]: 3.1 to 200 µM
O=C1CC(c2ccccn2)[S+]([O-])C(c2ccccn2)C1 (stereo not drawn) [3w, (±)-trans-2,6-Di-(pyridin-2-yl)-4H-tetrahydrothiopyran-4-one 1-oxide]	0.1	0.8	2	8	T3 (T3 = 4)							IC50 ([4]; Leishmania donovani): 25 µM
COc1ccc(C2CC(=O)CC(c3ccc(OC)cc3)[S+]2[O-])cc1 (stereo not drawn) [3″d, (anti)- and (syn)-cis-2,6-Di-(p-anisyl)-4H-tetrahydro-thiopyran-4-one 1-oxides]					T1 (T1 = 64)	2.4	8.5	27.3		35		IC50 T. cruzi intramacrophage amastigotes [2]: moderate potency; IC50 L. infantum intramacrophage amastigotes [3]: moderate potency; CC50 ([5]; human, 3 days): 32 µM
O=C1CC(c2ccccn2)S(=O)(=O)C(c2ccccn2)C1 (stereo not drawn) [4′w, cis-2,6-Di-(pyridin-2-yl)-4H-tetrahydrothiopyran-4-one 1,1-dioxide]					T3 (T3 = 4)	0.1	0.4	2		1.6		anti-trypanosomal activity (IC50) [1]: high nanomolar range; IC50 L. infantum intramacrophage amastigotes [3]: excellent potency; CC50 ([5]; human, 3 days): 7.5 µM
